Earlier results, collected in US6444469B1, “Methods for altering the rate of plant development and plants obtained therefrom” (Yale University, priority 1996, dated 2002).

System: late-flowering strains and mutants of Arabidopsis
Settings: treatment of seeds; some late-flowering strains and mutants

Nc1ncn([C@@H]2O[C@H](CO)[C@@H](O)[C@H]2O)c(=O)n1 [Line 5-AzaC, 5-azacytidine]
Effect on flowering: early flowering
